Measured values reported in PubChem BioAssay (NCI).
Values joined by “and” are separate entries in the source; they are usually repeats but may differ in a detail not shown here. Identical values can stand only once.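 Cultured in 96-well plates, cells were exposed to test compound for 48 hours across five concentrations. At the GI50, growth is halved. TGI marks complete inhibition of growth.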

Columns and labels:
Test in all cases: NCI tumour cell line growth inhibition, 48 h
786-0 renal = system: 786-0 renal
A498 renal = system: A498 renal
A549 NSCLC = system: A549 NSCLC
ACHN renal = system: ACHN renal
BT-549 breast = system: BT-549 breast
CAKI-1 renal = system: CAKI-1 renal
CCRF-CEM leukemia = system: CCRF-CEM leukemia
COLO 205 colon = system: COLO 205 colon
DLD-1 colon = system: DLD-1 colon
DMS 114 small cell lung = system: DMS 114 small cell lung
DMS 273 small cell lung = system: DMS 273 small cell lung
DU-145 prostate = system: DU-145 prostate
EKVX NSCLC = system: EKVX NSCLC
HCT-116 colon = system: HCT-116 colon
HCT-15 colon = system: HCT-15 colon
HL-60(TB) leukemia = system: HL-60(TB) leukemia
HOP-18 NSCLC = system: HOP-18 NSCLC
HOP-62 NSCLC = system: HOP-62 NSCLC
HOP-92 NSCLC = system: HOP-92 NSCLC
HS 578T breast = system: HS 578T breast
HT29 colon = system: HT29 colon
IGROV1 ovarian = system: IGROV1 ovarian
K-562 leukemia = system: K-562 leukemia
KM12 colon = system: KM12 colon
KM20L2 colon = system: KM20L2 colon
LOX IMVI melanoma = system: LOX IMVI melanoma
M14 melanoma = system: M14 melanoma
M19-MEL melanoma = system: M19-MEL melanoma
MALME-3M melanoma = system: MALME-3M melanoma
MCF7 breast = system: MCF7 breast
MDA-MB-231 breast = system: MDA-MB-231 breast
MDA-MB-435 = system: MDA-MB-435
MDA-N = system: MDA-N

Q: Which TGI (786-0 renal) does the source give for `CC[C@](O)(C(=O)O)c1cc2n(c(=O)c1CO)Cc1cc3ccccc3nc1-2` here?
A: 0.0525 µM

Q: What about the GI50 (A498 renal) of the same molecule?
A: 0.015 µM and 0.0448 µM

Q: And the TGI (A498 renal)?
A: 0.114 µM and 0.261 µM and 0.145 µM

Q: And the GI50 (A549 NSCLC)?
A: 0.0057 µM and < 0.0178 µM

Q: And the TGI (A549 NSCLC)?
A: 2.6 µM and 1.48 µM and 0.42 µM

Q: What about the TGI (ACHN renal) of the same molecule?
A: 0.0211 µM

Q: What about the GI50 (BT-549 breast) of the same molecule?
A: 0.107 µM

Q: What about the TGI (BT-549 breast) of the same molecule?
A: 11.5 µM and 18.5 µM

Q: And the GI50 (CAKI-1 renal)?
A: < 0.0025 µM

Q: And the GI50 (CCRF-CEM leukemia)?
A: < 0.0025 µM

Q: What about the TGI (CCRF-CEM leukemia) of the same molecule?
A: 4.04 µM

Q: What about the GI50 (COLO 205 colon) of the same molecule?
A: 0.0556 µM and 0.296 µM

Q: What about the TGI (COLO 205 colon) of the same molecule?
A: 0.779 µM and 2.21 µM and 3.85 µM

Q: What about the GI50 (DLD-1 colon) of the same molecule?
A: 0.311 µM and 0.337 µM

Q: And the TGI (DLD-1 colon)?
A: 30 µM

Q: What about the TGI (DMS 114 small cell lung) of the same molecule?
A: 1.11 µM and 0.412 µM

Q: And the GI50 (DMS 273 small cell lung)?
A: 0.0316 µM

Q: What about the TGI (DMS 273 small cell lung) of the same molecule?
A: 0.132 µM and 0.0963 µM

Q: And the GI50 (DU-145 prostate)?
A: < 0.0025 µM

Q: What about the TGI (DU-145 prostate) of the same molecule?
A: 0.559 µM and 0.417 µM

Q: What about the GI50 (EKVX NSCLC) of the same molecule?
A: 0.283 µM and 0.63 µM

Q: And the TGI (HCT-116 colon)?
A: 0.622 µM

Q: What about the GI50 (HCT-15 colon) of the same molecule?
A: 0.26 µM and 0.0703 µM

Q: What about the TGI (HCT-15 colon) of the same molecule?
A: 25 µM and 7.92 µM

Q: And the GI50 (HL-60(TB) leukemia)?
A: < 0.0025 µM

Q: And the TGI (HL-60(TB) leukemia)?
A: 0.347 µM and 2.5 µM

Q: And the TGI (HOP-18 NSCLC)?
A: 4.88 µM

Q: What about the GI50 (HOP-62 NSCLC) of the same molecule?
A: 0.025 µM

Q: And the GI50 (HOP-92 NSCLC)?
A: 0.163 µM

Q: What about the TGI (HOP-92 NSCLC) of the same molecule?
A: 5.67 µM and 0.567 µM

Q: And the GI50 (HS 578T breast)?
A: 1.48 µM

Q: What about the TGI (HS 578T breast) of the same molecule?
A: 25 µM and 13.7 µM

Q: What about the GI50 (HT29 colon) of the same molecule?
A: 0.0354 µM and 0.11 µM

Q: What about the GI50 (IGROV1 ovarian) of the same molecule?
A: 0.0299 µM and 0.197 µM

Q: What about the GI50 (K-562 leukemia) of the same molecule?
A: 0.0383 µM and 0.137 µM and 0.0357 µM

Q: What about the TGI (K-562 leukemia) of the same molecule?
A: 12.9 µM and 88 µM

Q: And the GI50 (KM12 colon)?
A: 0.132 µM and 0.228 µM and 0.54 µM

Q: And the GI50 (KM20L2 colon)?
A: 0.209 µM

Q: And the TGI (KM20L2 colon)?
A: 3.96 µM

Q: What about the GI50 (LOX IMVI melanoma) of the same molecule?
A: 0.00507 µM and 0.0264 µM

Q: And the TGI (LOX IMVI melanoma)?
A: 0.307 µM and 0.686 µM and 0.652 µM

Q: And the GI50 (M14 melanoma)?
A: 0.0108 µM

Q: And the TGI (M14 melanoma)?
A: 0.0511 µM and 0.181 µM

Q: What about the TGI (M19-MEL melanoma) of the same molecule?
A: 0.547 µM

Q: What about the GI50 (MALME-3M melanoma) of the same molecule?
A: 0.0642 µM and 0.272 µM

Q: What about the TGI (MALME-3M melanoma) of the same molecule?
A: 4.75 µM and 4.12 µM and 0.807 µM

Q: And the TGI (MCF7 breast)?
A: 3.43 µM

Q: What about the GI50 (MDA-MB-231 breast) of the same molecule?
A: 0.969 µM

Q: And the TGI (MDA-MB-231 breast)?
A: 6.84 µM

Q: And the GI50 (MDA-MB-435)?
A: 0.101 µM

Q: What about the TGI (MDA-MB-435) of the same molecule?
A: 0.632 µM and 0.516 µM

Q: What about the TGI (MDA-N) of the same molecule?
A: 0.605 µM
